The values that follow come from patent US7642367B2, “Diamino-functional chalcones” (Lica Pharmaceuticals A/S, priority 2002, dated 2010).

pIC50: −log10 of the molar value. Values after ≈ are worked out from the molar mass of the structure shown.

One data set deals with non-fastidious bacteria. In words: Activity against non-fastidious bacteria (panel). Particulars: for activity against Gram-positive non-fastidious bacteria: pathogenic Gram-positive bacteria.
The subject of data set [1] is dihydroorotate dehydrogenase (DHODH). Nature of the data set: DHODH assay. Particulars: test concentration not given. It counts as biochemical. The procedure: 100 μl chalcone or 0.1 M Tris-HCl pH 8.0 is added to a well in a 96-wells microtiter plate. Then 50 μl enzyme dilution is added. The microtiter plate is placed in the Powerwavex340 and the enzymatic reactions starts when adding 100 μl assay mixture. The reaction are measured every 20 sec. for 10 min. The samples with chalcones are compared with the samples with 0.1 M Tris-HCl pH 8.0 and the percent inhibition is calculated.
Enzyme dilution: The solution of recombinant purified enzyme is dissolved in 0.1 M Tris-HCl pH 8 to give an initial velocity of 0.04-0.05 ΔA/min.
2,6-dichlorophenolindophenol (DCIP)-stock solution: 40 mg DCIP and 10 ml 99% Ethanol are mixed for 10 min at RT. Then 100 μl 1.0 M Tris-HCl pH 8 and milliQ H20 are added to a final volume of 100 ml. The A600 of the DCIP-stock solution are measured in a microtiter plate on the Powerwavex340 (Bio-Tek instruments, Inc.)
[…]-stock solution: 25 mM dihydroorotate stock-solution is prepared by first dissolving in the same amount of mol NaOH and then miliQ H20 is added to the final volume.
Assay mix (10 ml solution): 600 μl of DHODH-stock solution and X ml (depending on the A600 value of stock-solution) DCIP to a final A600=2.5 are mixed. Then 0.1 M Tris-HCl pH 8.0 are added to a final volume of 10 ml.
Preparation of compound solution: A 10 mM stock-solution of compound (e.g. a chalcone derivative) is made in dimethylsulfoxid (DMSO). The compound is then diluted in 0.1 M Tris-HCl pH 8 to the test concentrations. The final DMSO concentration in the sample is 10%

The subject of data set [2] is Staphylococcus intermedius #2357 (clinical isolate). In words: MIC determination in broth microdilution assay. Conditions: C: Staphylococcus intermedius #2357; NA: no activity.
In data set [3] the test system is Streptococcus pneumoniae #998 (clinical isolate). In words: MIC determination in broth microdilution assay. Conditions: F: Streptococcus pneumoniae #998; NA: no activity. On the technique in general: Dilution methods test growth across graded concentrations, often in twofold steps.
The test system of data set [4] is Staphylococcus aureus ATCC33591 (resistant to methicillin). Nature of the data set: MIC determination in broth microdilution assay. Particulars: B: Staphylococcus aureus ATCC33591 (resistant to methicillin); NA: no activity.
Data set [5] relates to Enterococcus faecium #17501 (vancomycin-resistant clinical isolate). In words: MIC determination in broth microdilution assay. Conditions: E: Enterococcus faecium #17501 (vancomycin-resistant); NA: no activity.
For data set [6], the system named is Staphylococcus aureus ATCC29213. Nature of the data set: MIC determination in broth microdilution assay. Conditions: A: Staphylococcus aureus ATCC29213; NA: no activity.
The next data set relates to Eschericia coli ESS. Nature of the data set: MIC determination in broth microdilution assay. Particulars: H: Eschericia coli ESS; NA: no activity.
The next data set has as its system S. aureus ATCC29213. In words: Killing curve (time-kill) / broth macrodilution MIC. Particulars: for bactericidal or bacteriostatic (time-kill curve): S. aureus ATCC29213, concentrations above the MIC. It counts as cell-based, Staphylococcus aureus.
The test system of data set [7] is Bacteroides fragilis, Clostridium perfringens, Clostridium difficele. It is filed as cell-based. Particulars: single concentration of compound (100 μM).
Data set [8] concerns Enterococcus faecalis ATCC29212. Nature of the data set: MIC determination in broth microdilution assay. Conditions: D: Enterococcus faecalis ATCC29212; NA: no activity.
The nature of data set [9]: Determination of metabolic stability (liver microsomes). It counts as in vitro ADME, Wistar rat. Particulars: for Metabolic turn-over in vitro: rat liver microsomes, 20 μM, 15 min at 37° C. On the procedure: incubations were performed with Wistar rat liver microsomes (0.25 mg/ml) in 2% sodium bicarbonate solution. NADP (0.13 mg/ml), glucose-6-phosphate (0.63 mg/ml) and glucose-6-phosophate dehydrogenase (0.38 units/ml) were used as NADPH generation system and UDPGA (0.48 mg/ml) was added to include the phase II reaction, glucuronic acid conjugation, in the assay. After 5 minutes of pre-incubation the reaction was started by addition of the test article to give a final concentration of 20 μM. Samples were incubated for 15 min at 37° C. and the reactions were terminated by addition of equal volumes of acetonitrile. Blank incubations were performed at the same concentration but without addition of microsomes. Both blank and microsome-containing samples were made in replicats of three. Prior to analysis samples were centrifuged for 10 min. at 3500 rpm, HPLC system:
Initial conditions were 40% mobile phase A (acetonitrile) and 60% mobile phase B (10 mM ammonium acetate pH 9.5). During the first 20 minutes, the mobile phase was changed via a linear gradient to 90% A and 10% B. This was followed by a 5 minutes linear gradient to initial conditions, which were maintained for 5 min. The flow rate was 0.20 ml/min and injection volume 10 μl.

In data set [10] the test system is Eschericia coli ATCC25922. Nature of the data set: MIC determination in broth microdilution assay. Particulars: G: Eschericia coli ATCC25922; NA: no activity.
Data set [11] deals with Plasmodium falciparum 3D7. Nature of the data set: Plasmodium falciparum assay (3H-phenylalanine labelling). It is filed as cell-based. Particulars: for pIC50: Plasmodium falciparum 3D7 (Table 2), read-out: IC50.
Data set [12] is described as follows: Determination of solubility in phosphate buffer pH 7.4. It counts as physicochemical. Particulars: aqueous buffer at pH 7.4. On the procedure: Solubility of the compounds was determined by preparing a saturated solution of compound in 0.3 M phosphate buffer (pH 7.4±0.3) in a brown glass tube. The suspensions were rotated slowly for 24 hours. Aliquots were centrifuged for 10 minutes at 14.000 rpm and supernatants were diluted in 40% (v/v) acetonitrile in water prior to HPLC analysis. Concentrations of analytes were quantified against a standard curve and used as term of solubility.
The HPLC-UV method used for the assessment of solubility is the same as used in the in vitro metabolism assay.

The next data set deals with L. major promastigotes. Nature of the data set: Leishmania promastigote assay (3H-thymidine). Conditions: L. major.

As for `COc1ccc(C(=O)/C=C/c2ccccc2)cc1` [4′MC, 4′methoxy chalcone, reference compound], the “activity against Gram-positive non-fastidious bacteria” value with non-fastidious bacteria is “no antibacterial effect at all”. In data set [1], the “Inhibition of DHODH” value came out at 7%.
Regarding `CN(C)CCN(C)c1cccc(C(=O)/C=C/c2ccc(Cl)cc2Cl)c1` [B015, (E)-3-(2,4-Dichloro-phenyl)-1-{3-[(2-dimethylamino-ethyl)-methyl-amino]-phenyl}-propenone], the “Inhibition of DHODH” value in data set [1] came to 25%.
As for `CN(C)CCN(C)c1cccc(C(=O)/C=C/c2cc(F)ccc2F)c1` [B017, (E)-3-(2,5-Difluoro-phenyl)-1-{3-[(2-dimethylamino-ethyl)-methyl-amino]-phenyl}-propenone], in data set [1], the “Inhibition of DHODH” value is 23%.
In the case of `CN(C)CCN(C)c1cccc(C(=O)/C=C/c2ccc(Br)cc2F)c1` [B018, (E)-3-(4-Bromo-2-fluoro-phenyl)-1-{3-[(2-dimethylamino-ethyl)-methyl-amino]-phenyl}-propenone], the “Inhibition of DHODH” value in data set [1] is recorded as 22%.
Regarding `CCCCN(CCCC)c1cccc(/C=C/C(=O)c2ccccc2NCCN(C)C)c1` [B041, (E)-3-(3-Dibutylamino-phenyl)-1-[2-(2-dimethylamino-ethylamino)-phenyl]-propenone], the MIC (as a rule, the least concentration at which growth counts as inhibited) in [2] was 9.4 µM (≈ 3.96 µg/mL); in data set [3], 18.8 µM (≈ 7.93 µg/mL); in [4] it was 4.7 µM (≈ 1.98 µg/mL); in data set [5] it was 9.4 µM (≈ 3.96 µg/mL); in [6], 4.7 µM (≈ 1.98 µg/mL); with Eschericia coli ESS it was 300.0 µM (≈ 126 µg/mL). For the same compound, in [8], the MIC turned out to be 9.4 µM (≈ 3.96 µg/mL). Also, the “MIC (time-kill curve figure)” value with S. aureus ATCC29213 (S. aureus ATCC29213) stood at 9.4 µM (≈ 3.96 µg/mL). For the same compound, the “dependence of the bactericidal action” value in the data set on S. aureus ATCC29213 (S. aureus ATCC29213) was “primarily dependent on incubation time”. The “bactericidal or bacteriostatic (time-kill curve)” value in the data set on S. aureus ATCC29213 is “bactericidal”. The “activity against anaerobic bacteria” value in data set [7] is given as “activity against all microorganisms within the test panel”.
Consider `COc1ccc(C(=O)/C=C/c2ccccc2N(C)CCN(C)C)c(F)c1` [B058, (E)-3-{2-[(2-Dimethylamino-ethyl)-methyl-amino]-phenyl}-1-(2-fluoro-4-methoxy-phenyl)-propenone], for which, in data set [1], the “Inhibition of DHODH” value worked out at 17%.
Regarding `Cc1cc(C)cc(-c2ccc(N3CCN(C)CC3)c(/C=C/C(=O)c3ccccc3N)c2)c1` [B115, (E)-1-(2-Amino-phenyl)-3-[3′,5′-dimethyl-4-(4-methyl-piperazin-1-yl)-biphenyl-3-yl]-propenone], the minimum inhibitory concentration (MIC) in data set [2] is 4.7 µM (≈ 2 µg/mL); in data set [3], 9.4 µM (≈ 4 µg/mL); in [4], 4.7 µM (≈ 2 µg/mL); in data set [5], 4.7 µM (≈ 2 µg/mL); in data set [6], 4.7 µM (≈ 2 µg/mL); in the data set on Eschericia coli ESS, 9.4 µM (≈ 4 µg/mL). The compound also had an MIC in data set [8] of 4.7 µM (≈ 2 µg/mL). In addition, in data set [9], the “Metabolic turn-over in vitro” value turned out to be 0%. Besides, the “activity against Gram-positive non-fastidious bacteria” value in the data set with non-fastidious bacteria is “increased potency”.
Regarding `COc1ccc(C(=O)/C=C/c2cc(-c3cc(C)cc(C)c3)ccc2N2CCNCC2)c(CN(C)C)c1` [B117, (E)-1-(2-Dimethylaminomethyl-4-methoxy-phenyl)-3-(3′,5′-dimethyl-4-piperazin-1-yl-biphenyl-3-yl)-propenone], the MIC in [2] turned out to be 9.4 µM (≈ 4.55 µg/mL); in data set [4], 4.7 µM (≈ 2.27 µg/mL); in [10] it was 18.8 µM (≈ 9.09 µg/mL); in [5] it was 4.7 µM (≈ 2.27 µg/mL); in data set [6], 4.7 µM (≈ 2.27 µg/mL); in the data set with Eschericia coli ESS, 4.7 µM (≈ 2.27 µg/mL). Also, in [8], the MIC stood at 4.7 µM (≈ 2.27 µg/mL).
For `CN(C)CCN(C)c1cc(Br)cc(/C=C/C(=O)c2ccccc2CN(C)C)c1` [B118, (E)-3-{3-Bromo-5-[(2-dimethylamino-ethyl)-methyl-amino]-phenyl}-1-(2-dimethylaminomethyl-phenyl)-propenone], the “times more potent than LicA” value in data set [11] (Plasmodium falciparum, dose-response curve FIG. 6) came out at 40.
Regarding `COc1ccc(C(=O)/C=C/c2cc(-c3ccccc3OC)ccc2N2CCCN(C)CC2)c(F)c1` [B143, (E)-1-(2-Fluoro-4-methoxy-phenyl)-3-[2′-methoxy-4-(4-methyl-[1,4]diazepan-1-yl)-biphenyl-3-yl]-propenone], the “MIC (time-kill curve figure)” value in the data set on S. aureus ATCC29213 (S. aureus ATCC29213) was determined as 9.4 µM (≈ 4.46 µg/mL). Further, the “bactericidal or bacteriostatic (time-kill curve)” value in the data set with S. aureus ATCC29213 is reported as “bactericidal”.
As to `Cc1ccccc1-c1ccc(N(C)CCCN(C)C)c(/C=C/C(=O)c2ccccc2CN(C)C)c1` [B147, (E)-1-(2-Dimethylaminomethyl-phenyl)-3-{4-[(3-dimethylamino-propyl)-methyl-amino]-2′-methyl-biphenyl-3-yl}-propenone], the pIC50 (as a rule, −log10 of the IC50, conventionally taken in molar units) in data set [11] was 6.22.
As for `Cc1ccccc1-c1ccc(N(C)CCN(C)C)c(/C=C/C(=O)c2ccccc2CN(C)C)c1` [B148, (E)-3-{4-[(2-Dimethylamino-ethyl)-methyl-amino]-2′-methyl-biphenyl-3-yl}-1-(2-dimethylaminomethyl-phenyl)-propenone], the Solubility (as a rule, the dissolved amount per volume that the medium holds) in [12] worked out at 3300 µg/mL (≈ 7.24 mM).
With `Cc1ccccc1-c1ccc(N2CCN(C)CC2)c(/C=C/C(=O)c2ccc(O)c(CN(C)C)c2)c1` [B208, (E)-1-(3-Dimethylaminomethyl-4-hydroxy-phenyl)-3-[2′-methyl-4-(4-methyl-piperazin-1-yl)-biphenyl-3-yl]-propenone], the results for the pIC50 (in the data set on L. major promastigotes; in data set [11]) were 5.96 and 6.40, respectively.
With `Cc1ccccc1-c1ccc(N2CCN(C)CC2)c(/C=C/C(=O)c2ccc(O)cc2)c1` [B209, (E)-1-(4-Hydroxy-phenyl)-3-[2′-methyl-4-(4-methyl-piperazin-1-yl)-biphenyl-3-yl]-propenone], in [11], the pIC50 is 6.52.
Regarding `Cc1ccccc1-c1ccc(N2CCN(C)CC2)c(/C=C/C(=O)c2cccc(NC(=O)CN(C)C)c2)c1` [B211, 2-Dimethylamino-N-(3-{3-[2′-methyl-4-(4-methyl-piperazin-1-yl)-biphenyl-3-yl]-(E)-acryloyl}-phenyl)-acetamide], the pIC50 in [11] was 6.15.
As for `C=CC(C)(C)c1cc(/C=C/C(=O)c2ccc(O)cc2)c(OC)cc1O` [LicA, Licochalcone A], the MIC was determined as 75.0 µM (≈ 25.4 µg/mL) in data set [3] and 300.0 µM (≈ 102 µg/mL) in the data set with Eschericia coli ESS. For the same compound, the “turn-over in vitro” value in data set [9] is 100%. Besides, in data set [9], the “Metabolic turn-over in vitro” value turned out to be 100%. In the data set on non-fastidious bacteria, the “activity against Gram-positive non-fastidious bacteria” value was “moderate bactericidal activity”. Moreover, in the data set on non-fastidious bacteria (prototype pathogenic Gram-negative bacterium), the “activity against Escherichia coli” value was “only modest or no activity”. The “Inhibition of DHODH” value in [1] came to 25%.
